Reference: ChEMBL document CHEMBL1201862, “PubChem BioAssay data set” (2004)
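Protocol summary: plate cells (96-well), add compound at 5 concentrations, incubate 48 h, interpolate endpoints linearly. Here, GI50 denotes the concentration required for 50% inhibition of growth.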 Active and inactive are the calls of the source. Rule as the data show it: active = GI50 up to about 1.1 µM and inactive = higher.

Key:
Assay in all cases: NCI tumour cell line growth inhibition, 48 h
[1] = system: UO-31
[2] = system: A498
[3] = system: SNB-78
[4] = system: SK-MEL-5
[5] = system: NCI-H460
[6] = system: MOLT-4
[7] = system: 786-0
[8] = system: SK-OV-3
[9] = system: NCI-H226
[10] = system: K562
[11] = system: KM12
[12] = system: HOP-62
[13] = system: OVCAR-8
[14] = system: LXFL 529
[15] = system: NCI-H23
[16] = system: EKVX
[17] = system: HOP-92
[18] = system: SR
[19] = system: Malme-3M
[20] = system: HT-29
[21] = system: RXF 631
[22] = system: TK-10
[23] = system: SK-MEL-2
[24] = system: RPMI-8226
[25] = system: U-251
[26] = system: SNB-19
[27] = system: HCT-15
[28] = system: A549
[29] = system: XF498
[30] = system: HOP-18
[31] = system: OVCAR-3
[32] = system: SF-295
[33] = system: KM-20L2
[34] = system: M14
[35] = system: SN12C
[36] = system: DMS-114
[37] = system: HCC 2998
[38] = system: SK-MEL-28
[39] = system: DMS-273
[40] = system: M19-MEL
[41] = system: HL-60
[42] = system: NCI-H522
[43] = system: OVCAR-5
[44] = system: SW-620
[45] = system: LOX IMVI
[46] = system: UACC-62
[47] = system: CCRF-CEM
[48] = system: COLO 205
[49] = system: CAKI-1
[50] = system: IGROV-1
[51] = system: DLD-1
[52] = system: HCT-116
[53] = system: ACHN
[54] = system: RXF 393
[55] = system: SNB-75
[56] = system: SF-268
[57] = system: UACC-257

Measured: GI50

CCOC(=O)C1(Br)C(c2ccccc2)NC(=O)NC1(C)Br (configuration not stated)
active: [44] 332 nM
inactive: [1] > 100 µM | [2] > 100 µM | [3] > 100 µM | [4] 57.4 µM | [5] > 100 µM | [6] 73.3 µM | [7] 38.3 µM | [8] > 100 µM | [9] > 100 µM | [10] 39.8 µM | [11] > 100 µM | [12] > 100 µM | [13] 89.3 µM | [14] 92.5 µM | [15] 67.3 µM | [16] 95.3 µM | [17] > 100 µM | [18] 57.1 µM | [19] > 100 µM | [20] > 100 µM | [21] 46.6 µM | [22] > 100 µM | [23] > 100 µM | [24] 62.2 µM | [25] 16.4 µM | [26] 19 µM | [28] > 100 µM | [29] 52.2 µM | [30] > 100 µM | [31] 62.5 µM | [32] > 100 µM | [33] > 100 µM | [34] 82.8 µM | [35] 59.6 µM | [36] 28.9 µM | [37] > 100 µM | [38] > 100 µM | [39] 90.2 µM | [40] 64.1 µM | [41] 17.9 µM | [42] 30.3 µM | [43] > 100 µM | [45] 38.3 µM | [46] 52.8 µM | [47] 33.9 µM | [48] 65.3 µM | [49] 18.5 µM | [50] 54.6 µM | [51] 55.7 µM | [52] 60.4 µM | [53] > 100 µM | [54] 25.1 µM | [55] > 100 µM | [56] > 100 µM | [57] 82 µM
> 100 µM: [27]
